Test results: US20120101093A1, “SUBSTITUTED IMIDAZO[1,2-A]PYRIDINE DERIVATIVES, PHARMACEUTICAL COMPOSITIONS, AND METHODS OF USE AS BETA-SECRETASE INHIBITORS” (HIGH POINT PHARMACEUTICALS, LLC, priority 2009, published 2012)

What was measured:
[1] = molecular target: T1, BACE-1 enzyme (Homo sapiens, UniProt P56817); assay: BACE Fluorescence Resonance Energy Transfer (FRET) Assay; type: biochemical; settings: pH 4-4.5, 30 min pre-incubation, about 1.5 hours reaction
T1 construct: purchased R & D Systems 931AS
T1 sequence (P56817 46-457 limits assumed): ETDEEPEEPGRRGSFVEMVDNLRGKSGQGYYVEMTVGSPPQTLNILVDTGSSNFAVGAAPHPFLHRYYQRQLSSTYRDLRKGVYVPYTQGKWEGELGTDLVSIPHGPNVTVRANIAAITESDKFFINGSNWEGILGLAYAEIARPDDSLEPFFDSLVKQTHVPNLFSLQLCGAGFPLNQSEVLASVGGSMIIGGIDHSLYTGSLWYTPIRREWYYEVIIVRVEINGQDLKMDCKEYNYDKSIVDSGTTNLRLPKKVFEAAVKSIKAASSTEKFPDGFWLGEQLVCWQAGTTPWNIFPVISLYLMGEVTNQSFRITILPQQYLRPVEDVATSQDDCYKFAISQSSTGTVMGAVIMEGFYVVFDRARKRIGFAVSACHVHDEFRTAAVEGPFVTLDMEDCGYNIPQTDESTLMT
Procedure, shortened: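 BACE-1 enzyme pre-incubated 30 min with compound in 7.5% DMSO in 50 mM sodium acetate pH 4-4.5, 0.01% CHAPS, 0.0125% Triton X-100, 0.006% EDTA. Rhodamine/quencher peptide substrate added; ~1.5 h at room temperature, fluorescence read at 540/585 nm. IC50 or percent inhibition at one concentration.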

[2] = test system: Aβ1-40 secreted from HEK293 cells stably expressing wildtype human APP695 protein (HEK-APPwt cells); assay: Aβ Cell Based Assay (Aβ1-40 secretion, ELISA); settings: Homo sapiens, HEK293, 6 h, 6 hours incubation, reduction of Aβ1-40 secretion
Procedure: Aβ Cell Based Assay Procedure
In the following assay, the proteolytic activity of BACE in cells exposed to varying concentrations of a compound of interest is measured by observing the amount of Aβ1-40 secreted from HEK293 cells (Human Embryonic Kidney epithelial cell line) stably expressing wildtype human APP695 protein (HEK-APPwt cells).
HEK-APPwt cells were grown in high glucose DMEM (Dulbecco's Modified Eagles Medium SIGMA Cat.# D5796) supplemented with 25 mM HEPES (4-(2-hydroxyethyl)-1-piperazineethanesulfonic acid) (pH 7.4) (Invitrogen Cat.# 15630-114), 0.1 mM NEAA (Non-essential Amino Acids) (BioWhittaker Cat. #13-114E), 10% fetal bovine serum (SIGMA Cat. #F4135) and 250 μg/mL hygromycin (Invitrogen Cat. #10687-010) in T-225 flasks at 37° C. with 5% CO2 and humidity control.
Test compounds were initially prepared in DMSO and diluted with DMEM media containing 2% FBS (Fetal bovine serum). Ten standard compound solutions were prepared having a range of concentrations. The standard compound solutions were used to determine the EC50 of the test compound. The range of concentrations chosen may depend on the compound's predicted potency.
To prepare the cells for the assay, a flask containing HEK-APPwt cells were trypsinized briefly (1 mL trypsin), and once the cells detached, 4 mL of 10% FBS-DMEM was added to the flask. The detached cells were centrifuged at 900 rpm for 5 min to form a pellet.
The HEK-APPwt cell pellet was re-suspended with 10 mL DMEM media containing 2% FBS. 80 μL of the cell suspension was added to each well of a 96-well cell culture plate to give 100×10^4cells/ml. 10 μL of a standard compound solution was added to each well of the 96-well cell culture plate followed by 10 μL of Alamar blue solution. The cells were incubated at 37° C. in a 5% CO2 incubator for 6 hours.
At the end of the incubation, the plates were removed from incubator, and the supernatant was collected. A≈1-40 concentration in the medium was measured by using a commercial Aβ1-X ELISA kit (IBL, Japan Cat. #27729). Briefly, the ELISA plates were coated with an anti-human AO (N)(82E1) mouse IgG monoclonal antibody. A horseradish peroxidase conjugated anti-human Aβ11-28 mouse IgG monoclonal antibody was used for detection. The cell culture supernatant was diluted with EIA buffer +protease inhibitors (kit buffer containing protease inhibitors (1 mL PI/30 mL buffer)). A 100 μL aliquot of the diluted supernatant was added to each well of the ELISA plate and incubated for 6 hrs at 4° C. The ELISA plate was washed 8 times with phosphate buffered saline (PBS) containing 0.05% Tween 20.
A 100 μL of detection antibody was then added and incubated for 1 hour at 4° C. The plate was washed 8 times with PBS buffer containing 0.05% Tween 20 followed by addition of 100 μL of the chromogen tetramethylbenzidine (TMB). The plate was incubated in the dark at room temperature for about 30 min and a stop solution (1N H2SO4) was added.
The intensity of the color developed was measured at 450 nm. The optical density at 450 nm (OD450) is proportional to the concentration of human Aβ1-40 secreted by the cell. As a reference, N-[N-(3,5-difluorophenacetyl-L-alanyl)]-S-phenylglycine t-butyl ester (DAPT, a γ-secretase inhibitor) was used to indicate 100% inhibition of BACE activity. Thus, the assay measures the ability of a compound of interest to reduce Aβ1-40 secretion. For select compounds, compound potency is reported in Table 3 as the EC50 by calculating the percent inhibition at all concentration levels and the data were fit with non-linear curve fitting algorithm using GraphPad Prism.

SMILES: COCCNc1cccc2nc(C(=O)Nc3nc4cc(-c5cccc(C(F)(F)F)c5)ccc4[nH]3)cn12 [Example 122, 5-(2-Methoxy-ethylamino)-imidazo[1,2-a]pyridine-2-carboxylic acid [5-(3-trifluoromethyl-phenyl)-1H-benzoimidazol-2-yl]-amide]
- IC50 [1]: 0.54 µM
- EC50 [2]: 1.5 µM

SMILES: CCOc1ccc(-c2ccc3[nH]c(NC(=O)c4cn5c(C)cccc5n4)nc3c2)cc1C [Example 107, 5-Methyl-imidazo[1,2-a]pyridine-2-carboxylic acid [5-(4-ethoxy-3-methyl-phenyl)-1H-benzoimidazol-2-yl]-amide]
- IC50 [1]: 0.84 µM
- EC50 [2]: 2.95 µM

SMILES: Cc1cccn2cc(C(=O)Nc3nc4cc(-c5cccc(OC(F)(F)F)c5)ccc4[nH]3)nc12 [Example 28, 8-Methyl-imidazo[1,2-a]pyridine-2-carboxylic acid [5-(3-trifluoromethoxy-phenyl)-1H-benzoimidazol-2-yl]-amide]
- IC50 [1]: 0.32 µM
- EC50 [2]: 2.13 µM

SMILES: CN1CCN(Cc2cccc3nc(C(=O)Nc4nc5cc(-c6cccc(C(F)(F)F)c6)ccc5[nH]4)cn23)CC1 [Example 10, 5-(4-Methyl-piperazin-1-ylmethyl)-imidazo[1,2-a]pyridine-2-carboxylic acid [5-(3-trifluoromethyl-phenyl)-1H-benzoimidazol-2-yl]-amide]
- IC50 [1]: 0.3 µM
- EC50 [2]: 2.53 µM

SMILES: O=C(Nc1nc2cc(-c3cccc(C(F)(F)F)c3)ccc2[nH]1)c1cn2c(CNCCCO)cccc2n1 [Example 171, 5-[(3-Hydroxy-propylamino)-methyl]-imidazo[1,2-a]pyridine-2-carboxylic acid [5-(3-trifluoromethyl-phenyl)-1H-benzoimidazol-2-yl]-amide]
- IC50 [1]: 0.71 µM
- EC50 [2]: 4.26 µM

SMILES: CN(C)Cc1ccn2cc(C(=O)Nc3nc4cc(-c5cccc(C(F)(F)F)c5)ccc4[nH]3)nc2c1 [Example 202, 7-Dimethylaminomethyl-imidazo[1,2-a]pyridine-2-carboxylic acid [5-(3-trifluoromethyl-phenyl)-1H-benzoimidazol-2-yl]-amide]
- IC50 [1]: 0.9 µM
- EC50 [2]: 4.54 µM

SMILES: CN(Cc1ccccc1)Cc1ccc2nc(C(=O)Nc3nc4cc(-c5cccc(C(F)(F)F)c5)ccc4[nH]3)cn2c1 [Example 185, 6-[(Benzyl-methyl-amino)-methyl]-imidazo[1,2-a]pyridine-2-carboxylic acid [5-(3-trifluoromethyl-phenyl)-1H-benzoimidazol-2-yl]-amide]
- IC50 [1]: 0.62 µM
- EC50 [2]: 1.93 µM

SMILES: COCCCNCc1ccn2cc(C(=O)Nc3nc4cc(-c5cccc(C(F)(F)F)c5)ccc4[nH]3)nc2c1 [Example 209, 7-[(3-Methoxy-propylamino)-methyl]-imidazo[1,2-a]pyridine-2-carboxylic acid [5-(3-trifluoromethyl-phenyl)-1H-benzoimidazol-2-yl]-amide]
- IC50 [1]: 0.22 µM
- EC50 [2]: 4.91 µM

SMILES: CN(C)Cc1cccn2cc(C(=O)Nc3nc4cc(-c5cccc(C(F)(F)F)c5)ccc4[nH]3)nc12 [Example 197, 8-Dimethylaminomethyl-imidazo[1,2-a]pyridine-2-carboxylic acid [5-(3-trifluoromethyl-phenyl)-1H-benzoimidazol-2-yl]-amide]
- IC50 [1]: 0.7 µM
- EC50 [2]: 0.76 µM

SMILES: CCN(C)Cc1ccn2cc(C(=O)Nc3nc4cc(-c5cccc(C(F)(F)F)c5)ccc4[nH]3)nc2c1 [Example 205, 7-[(Ethyl-methyl-amino)-methyl]-imidazo[1,2-a]pyridine-2-carboxylic acid [5-(3-trifluoromethyl-phenyl)-1H-benzoimidazol-2-yl]-amide]
- IC50 [1]: 0.59 µM
- EC50 [2]: 3.2 µM

SMILES: Cc1cccc2nc(C(=O)Nc3nc4cc(C5=CCCCC5)ccc4[nH]3)cn12 [Example 83, 5-Methyl-imidazo[1,2-a]pyridine-2-carboxylic acid (5-cyclohex-1-enyl-1H-benzoimidazol-2-yl)-amide]
- IC50 [1]: 1.45 µM
- EC50 [2]: 4.17 µM

SMILES: Cc1cccc2nc(C(=O)Nc3nc4cc(-c5ccc(O)c(C(F)(F)F)c5)ccc4[nH]3)cn12 [Example 100, 5-Methyl-imidazo[1,2-a]pyridine-2-carboxylic acid [5-(4-hydroxy-3-trifluoromethyl-phenyl)-1H-benzoimidazol-2-yl]-amide]
- IC50 [1]: 0.46 µM
- EC50 [2]: 2.44 µM

SMILES: O=C(Nc1nc2cc(-c3cccc(C(F)(F)F)c3)ccc2[nH]1)c1cn2cc(F)ccc2n1 [Example 112, 6-Fluoro-imidazo[1,2-a]pyridine-2-carboxylic acid [5-(3-trifluoromethyl-phenyl)-1H-benzoimidazol-2-yl]-amide]
- IC50 [1]: 0.43 µM
- EC50 [2]: 1.94 µM

SMILES: Cc1cccc2nc(C(=O)Nc3nc4cc(-c5ccc(C(C)(C)C)cc5)ccc4[nH]3)cn12 [Example 77, 5-Methyl-imidazo[1,2-a]pyridine-2-carboxylic acid [5-(4-tert-butyl-phenyl)-1H-benzoimidazol-2-yl]-amide]
- IC50 [1]: 0.61 µM
- EC50 [2]: 0.85 µM

SMILES: COc1c(-c2ccc3[nH]c(NC(=O)c4cn5c(C)cccc5n4)nc3c2)cccc1C(F)(F)F [Example 110, 5-Methyl-imidazo[1,2-a]pyridine-2-carboxylic acid [5-(2-methoxy-3-trifluoromethyl-phenyl)-1H-benzoimidazol-2-yl]-amide]
- IC50 [1]: 0.4 µM
- EC50 [2]: 0.75 µM

SMILES: Cc1cccc2nc(C(=O)Nc3nc4cc(OCc5cc(F)cc(C(F)(F)F)c5)ccc4[nH]3)cn12 [Example 43, 5-Methyl-imidazo[1,2-a]pyridine-2-carboxylic acid [5-(3-fluoro-5-trifluoromethyl-benzyloxy)-1H-benzoimidazol-2-yl]-amide]
- IC50 [1]: 0.3 µM
- EC50 [2]: 0.58 µM

SMILES: Cc1cc(-c2ccc3[nH]c(NC(=O)c4cn5c(C)cccc5n4)nc3c2)ccc1Cl [Example 99, 5-Methyl-imidazo[1,2-a]pyridine-2-carboxylic acid [5-(4-chloro-3-methyl-phenyl)-1H-benzoimidazol-2-yl]-amide]
- IC50 [1]: 0.27 µM
- EC50 [2]: 0.12 µM

SMILES: Cc1cccc2nc(C(=O)Nc3nc4cc(-c5ccc(F)c(F)c5)ccc4[nH]3)cn12 [Example 63, 5-Methyl-imidazo[1,2-a]pyridine-2-carboxylic acid [5-(3,4-difluoro-phenyl)-1H-benzoimidazol-2-yl]-amide]
- IC50 [1]: 1.15 µM
- EC50 [2]: 1.32 µM

SMILES: CN1CCC(Oc2cccc3nc(C(=O)Nc4nc5cc(-c6cccc(C(F)(F)F)c6)ccc5[nH]4)cn23)CC1 [Example 3, 5-(1-Methyl-piperidin-4-yloxy)-imidazo[1,2-a]pyridine-2-carboxylic acid[5-(3-trifluoromethyl-phenyl)-1H-benzoimidazol-2-yl]-amide]
- IC50 [1]: 1.15 µM
- EC50 [2]: 4.02 µM

SMILES: O=C(Nc1nc2cc(-c3cccc(C(F)(F)F)c3)ccc2[nH]1)c1cn2ccc(CNCc3ccncc3)cc2n1 [Example 204, 7-{[(Pyridin-4-ylmethyl)-amino]-methyl}-imidazo[1,2-a]pyridine-2-carboxylic acid [5-(3-trifluoromethyl-phenyl)-1H-benzoimidazol-2-yl]-amide]
- IC50 [1]: 0.47 µM
- EC50 [2]: 2.37 µM

SMILES: CN1CC=C(c2cccc3nc(C(=O)Nc4nc5cc(-c6cccc(C(F)(F)F)c6)ccc5[nH]4)cn23)CC1 [Example 215, 5-(1-methyl-1,2,3,6-tetrahydropyridin-4-yl)-N-{5-[3-(trifluoromethyl)phenyl]-1H-benzimidazol-2-yl}imidazo[1,2-a]pyridine-2-carboxamide]
- IC50 [1]: 0.41 µM
- EC50 [2]: 5.35 µM
